Columns and labels:
[1] = biological target: T1, Solute carrier organic anion transporter family member 1B1 (Homo sapiens, UniProt Q9Y6L6); settings: chinese hamster, cho, 10 µM
T1 sequence (Q9Y6L6 whole entry): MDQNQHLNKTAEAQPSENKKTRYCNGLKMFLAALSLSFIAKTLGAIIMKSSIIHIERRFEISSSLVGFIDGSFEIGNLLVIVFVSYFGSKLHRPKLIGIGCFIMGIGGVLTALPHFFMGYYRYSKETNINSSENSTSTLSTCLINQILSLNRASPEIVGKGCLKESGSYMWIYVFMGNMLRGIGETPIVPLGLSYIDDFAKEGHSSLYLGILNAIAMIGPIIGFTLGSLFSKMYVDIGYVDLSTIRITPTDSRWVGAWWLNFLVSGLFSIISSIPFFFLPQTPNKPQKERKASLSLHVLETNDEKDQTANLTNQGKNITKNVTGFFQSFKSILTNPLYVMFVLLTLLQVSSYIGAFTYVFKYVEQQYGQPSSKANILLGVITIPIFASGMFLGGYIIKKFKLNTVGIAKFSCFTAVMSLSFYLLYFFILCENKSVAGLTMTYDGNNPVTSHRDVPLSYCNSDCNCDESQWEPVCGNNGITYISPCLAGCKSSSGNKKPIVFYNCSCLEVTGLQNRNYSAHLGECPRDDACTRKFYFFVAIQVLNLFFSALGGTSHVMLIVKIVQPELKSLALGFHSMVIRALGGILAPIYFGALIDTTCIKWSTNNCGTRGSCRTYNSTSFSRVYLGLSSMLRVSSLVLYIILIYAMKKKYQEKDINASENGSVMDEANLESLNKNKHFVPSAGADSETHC

[2] = biological target: T2, Solute carrier organic anion transporter family member 1B3 (Homo sapiens, UniProt Q9NPD5); settings: chinese hamster, cho, 10 µM
T2 sequence (Q9NPD5 whole entry): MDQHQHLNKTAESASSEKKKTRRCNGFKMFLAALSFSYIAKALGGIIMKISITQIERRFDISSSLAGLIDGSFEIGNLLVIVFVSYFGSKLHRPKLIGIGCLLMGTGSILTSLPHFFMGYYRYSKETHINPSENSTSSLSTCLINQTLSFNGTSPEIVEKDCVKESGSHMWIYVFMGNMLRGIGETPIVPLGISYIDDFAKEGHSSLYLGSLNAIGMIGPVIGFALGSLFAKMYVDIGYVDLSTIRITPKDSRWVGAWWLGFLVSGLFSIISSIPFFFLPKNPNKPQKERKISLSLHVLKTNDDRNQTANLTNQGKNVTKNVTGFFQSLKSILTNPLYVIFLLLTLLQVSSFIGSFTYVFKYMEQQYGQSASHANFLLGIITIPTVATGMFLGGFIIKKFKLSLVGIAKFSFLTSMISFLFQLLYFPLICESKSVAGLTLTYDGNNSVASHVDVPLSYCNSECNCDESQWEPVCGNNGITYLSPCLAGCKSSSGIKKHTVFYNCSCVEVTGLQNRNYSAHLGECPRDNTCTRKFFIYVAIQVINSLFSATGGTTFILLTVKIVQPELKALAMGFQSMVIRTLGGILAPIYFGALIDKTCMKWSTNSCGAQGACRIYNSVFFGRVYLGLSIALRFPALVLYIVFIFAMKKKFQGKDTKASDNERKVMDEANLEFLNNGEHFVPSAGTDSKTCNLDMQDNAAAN

Row | Structure (SMILES) | residual activity [1] [%] | residual activity [2] [%]
1 | CC(=O)N[C@@H]1[C@@H](O)[C@H](O)[C@@H](CO)O[C@H]1O [N-ACETYLGLUCOSAMINE] | 48.98 | 82.99
2 | C=CCc1cc(OC)c2c(c1OC)OCO2 [APIOL] | 213.1 | 107.2
3 | O=C(O)c1cc(O)c(=O)c2c(O)c(O)ccc2c1 [7-DESHYDROXYPYROGALLIN-4-CARBOXYLIC ACID] | 100.2 | 69.89
4 | C=C(C)[C@@H]1CC[C@]2(C(=O)O)CC[C@]3(C)[C@H](CC[C@@H]4[C@@]5(C)CC[C@H](O)C(C)(C)[C@@H]5CC[C@]43C)[C@@H]12 [BETULINIC ACID] | 25.94 | 38.62
5 | O=C1c2ccc(O)c(O)c2C(=O)c2c(O)ccc(O)c21 [QUINALIZARIN] | 57.07 | 75.87
6 | CC(C)c1ccc2c(c1)CCC1[C@](C)(CN)CCC[C@]21C.O=S(=O)(O)O (some centres not stated) [18-AMINOABIETA-8,11,13-TRIENE SULFATE] | 102.4 | 99.03
7 | N#Cc1c(Cl)c(Cl)c(Cl)c(C#N)c1Cl [CHLOROTHALONIL] | 92.97 | 81.58
8 | COc1ccc(-c2coc3c(OC)c(OC)cc(OC)c3c2=O)cc1 [ISOTECTORIGENIN TRIMETHYL ETHER] | 133.5 | 118.2
9 | Cc1ccccc1C(OCCN(C)C)c1ccccc1.O=C(O)CC(O)(CC(=O)O)C(=O)O (configuration not stated) [ORPHENADRINE CITRATE] | 87.55 | 96.44
10 | CCN(CC)CCOC(=O)C(c1ccccc1)c1ccccc1.Cl [ADIPHENINE HYDROCHLORIDE] | 59.48 | 95.82
11 | CNc1ccccc1C(=O)N1CCc2c([nH]c3ccccc23)C1=O [RHETSININE] | 102 | 98.18
12 | Cc1cc(-c2ccccc2)nnc1NCCN1CCOCC1.Cl | 73.96 | 96.66
13 | C[C@H]1O[C@@H](O[C@H]2[C@@H](O)C[C@H](O[C@H]3[C@@H](O)C[C@H](O[C@H]4CC[C@@]5(C)[C@H](CC[C@@H]6[C@@H]5CC[C@]5(C)[C@@H](C7=CC(=O)OC7)CC[C@]65O)C4)O[C@@H]3C)O[C@@H]2C)C[C@H](O)[C@@H]1O [DIGITOXIN] | 56.48 | 66.85
14 | NC(=O)c1cnccn1 [PYRAZINAMIDE] | 79.24 | 116.6
15 | COC(=O)Nc1nc2ccc(C(=O)c3cccs3)cc2[nH]1 [NOCODAZOLE] | 105.9 | 95.15
16 | C[N+]1(C)[C@@H]2C[C@@H](OC(=O)[C@H](CO)c3ccccc3)C[C@H]1[C@@H]1O[C@@H]12.[Br-] [METHSCOPOLAMINE BROMIDE] | 104.8 | 92.61
17 | COc1ccc(-c2oc3c(CC=C(C)C)c(O[C@@H]4O[C@H](CO)[C@@H](O)[C@H](O)[C@H]4O)cc(O)c3c(=O)c2O[C@@H]2O[C@@H](C)[C@H](O)[C@@H](O)[C@H]2O)cc1 [ICARIIN] | 212.5 | 126.8
18 | COc1ccc(-c2c(OC)c3c(OC)c4c(cc3oc2=O)OC(C)(C)C=C4)cc1 [ROBUSTIC ACID METHYL ETHER] | 184.1 | 140.2
19 | C#C[C@]1(O)CC[C@H]2[C@@H]3CCC4=CC(=O)CC[C@@H]4[C@H]3CC[C@@]21C [NORETHINDRONE] | 91.27 | 109.8
20 | CS(=O)(=O)O.OC(CCN1CCCCC1)(c1ccccc1)c1ccccc1 [PRIDINOL METHANESULFONATE] | 95.92 | 95.39
21 | CC(=O)Oc1ccc2c(c1)CCC1C2CC[C@]2(C)C(=O)CCC12 (some centres not stated) [ESTRONE ACETATE] | 204.8 | 109.5
